Source: the kinase profiling compilation of Christmann-Franck et al. (2016)
Blank lines part the entries; values can stand above or below the compound they belong to.

How the values were obtained:
Experiment in all cases: KINOMEscan competition binding
Conditions in all cases: compound 10.0 µM
[1] = target: STK25 (human) (UniProt O00506)
[2] = target: RIOK3 (human) (UniProt O14730)
[3] = target: NTRK3 (human) (UniProt Q16288)
[4] = target: PAK3 (human) (UniProt O75914)
[5] = test system: FLT3 (human), P36888 [K663Q]
[6] = target: RIOK2 (human) (UniProt Q9BVS4)
[7] = target: PRKAA1 (human) (UniProt Q13131)
PRKAA1 (human), sequence (Q13131 whole entry, looked up): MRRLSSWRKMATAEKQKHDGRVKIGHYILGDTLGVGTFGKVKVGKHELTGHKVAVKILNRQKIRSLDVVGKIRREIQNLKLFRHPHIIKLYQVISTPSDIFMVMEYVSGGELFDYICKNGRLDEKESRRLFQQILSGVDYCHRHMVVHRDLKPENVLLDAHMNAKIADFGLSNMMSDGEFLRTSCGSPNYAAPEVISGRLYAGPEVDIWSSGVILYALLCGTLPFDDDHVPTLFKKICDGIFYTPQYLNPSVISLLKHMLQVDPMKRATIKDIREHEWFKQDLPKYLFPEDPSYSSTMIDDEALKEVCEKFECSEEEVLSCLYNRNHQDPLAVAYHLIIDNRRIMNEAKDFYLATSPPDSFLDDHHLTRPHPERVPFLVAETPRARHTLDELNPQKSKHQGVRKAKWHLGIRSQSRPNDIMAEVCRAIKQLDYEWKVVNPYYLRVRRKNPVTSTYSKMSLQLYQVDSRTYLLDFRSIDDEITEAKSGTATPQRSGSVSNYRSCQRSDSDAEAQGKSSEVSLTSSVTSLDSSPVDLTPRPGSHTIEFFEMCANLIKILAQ

[8] = target: KIT (human) (UniProt P10721)
[9] = target: CLK1 (human) (UniProt P49759)
[10] = target: LATS1 (human) (UniProt O95835)
[11] = target: PRKD1 (human) (UniProt Q15139)
PRKD1 (human), sequence (Q15139 whole entry, looked up): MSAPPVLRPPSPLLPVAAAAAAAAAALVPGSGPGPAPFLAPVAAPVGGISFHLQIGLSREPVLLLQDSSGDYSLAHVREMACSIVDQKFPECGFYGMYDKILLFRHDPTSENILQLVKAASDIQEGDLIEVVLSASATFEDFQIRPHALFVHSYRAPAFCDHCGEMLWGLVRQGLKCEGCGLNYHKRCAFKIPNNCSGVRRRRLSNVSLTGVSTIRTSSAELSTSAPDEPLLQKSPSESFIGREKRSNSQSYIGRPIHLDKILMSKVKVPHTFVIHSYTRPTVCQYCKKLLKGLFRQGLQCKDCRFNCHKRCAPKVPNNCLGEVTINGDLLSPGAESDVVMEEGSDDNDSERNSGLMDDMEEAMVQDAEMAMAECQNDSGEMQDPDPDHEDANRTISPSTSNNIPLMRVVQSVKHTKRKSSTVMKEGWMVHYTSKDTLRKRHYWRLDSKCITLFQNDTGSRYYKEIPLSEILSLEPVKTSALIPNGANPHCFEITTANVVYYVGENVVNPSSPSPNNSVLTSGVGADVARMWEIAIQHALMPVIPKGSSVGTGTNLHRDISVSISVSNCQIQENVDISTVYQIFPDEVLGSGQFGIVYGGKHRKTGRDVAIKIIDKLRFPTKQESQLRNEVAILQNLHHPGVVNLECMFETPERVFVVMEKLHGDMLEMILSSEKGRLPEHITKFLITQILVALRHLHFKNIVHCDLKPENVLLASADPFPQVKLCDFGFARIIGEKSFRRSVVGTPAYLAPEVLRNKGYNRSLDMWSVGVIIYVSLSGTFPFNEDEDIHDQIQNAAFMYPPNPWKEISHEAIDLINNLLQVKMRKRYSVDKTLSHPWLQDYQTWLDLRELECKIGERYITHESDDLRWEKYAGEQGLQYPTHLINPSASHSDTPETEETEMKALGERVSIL

[12] = target: RIPK1 (human) (UniProt Q13546)
[13] = target: MAP4K4 (human) (UniProt O95819)
[14] = target: CSNK1E (human) (UniProt P49674)
[15] = target: MYLK4 (human) (UniProt Q86YV6)
[16] = target: DAPK3 (human) (UniProt O43293)
[17] = target: HIPK1 (human) (UniProt Q86Z02)
[18] = target: CAMKK2 (human) (UniProt Q96RR4)
[19] = target: CAMK1D (human) (UniProt Q8IU85)
[20] = target: AXL (human) (UniProt P30530)
[21] = target: KDR (human) (UniProt P35968)
[22] = target: JAK3 JH1 catalytic (human) (UniProt P52333)
[23] = target: CDKL2 (human) (UniProt Q92772)
[24] = target: STK4 (human) (UniProt Q13043)
[25] = target: CHUK (human) (UniProt O15111)
[26] = target: DAPK1 (human) (UniProt P53355)
[27] = target: CSNK1G2 (human) (UniProt P78368)
[28] = target: RPS6KA4 KD2 (human) (UniProt O75676)
[29] = target: LYN (human) (UniProt P07948)
[30] = target: TGFBR2 (human) (UniProt P37173)
[31] = target: SYK (human) (UniProt P43405)
[32] = target: DYRK1B (human) (UniProt Q9Y463)
[33] = target: MAPK11 (human) (UniProt Q15759)
[34] = target: BMPR1B (human) (UniProt O00238)
[35] = target: MST4 (human) (UniProt Q9P289)
[36] = target: EPHA6 (human) (UniProt Q9UF33)
EPHA6 (human), sequence (Q9UF33 whole entry, looked up): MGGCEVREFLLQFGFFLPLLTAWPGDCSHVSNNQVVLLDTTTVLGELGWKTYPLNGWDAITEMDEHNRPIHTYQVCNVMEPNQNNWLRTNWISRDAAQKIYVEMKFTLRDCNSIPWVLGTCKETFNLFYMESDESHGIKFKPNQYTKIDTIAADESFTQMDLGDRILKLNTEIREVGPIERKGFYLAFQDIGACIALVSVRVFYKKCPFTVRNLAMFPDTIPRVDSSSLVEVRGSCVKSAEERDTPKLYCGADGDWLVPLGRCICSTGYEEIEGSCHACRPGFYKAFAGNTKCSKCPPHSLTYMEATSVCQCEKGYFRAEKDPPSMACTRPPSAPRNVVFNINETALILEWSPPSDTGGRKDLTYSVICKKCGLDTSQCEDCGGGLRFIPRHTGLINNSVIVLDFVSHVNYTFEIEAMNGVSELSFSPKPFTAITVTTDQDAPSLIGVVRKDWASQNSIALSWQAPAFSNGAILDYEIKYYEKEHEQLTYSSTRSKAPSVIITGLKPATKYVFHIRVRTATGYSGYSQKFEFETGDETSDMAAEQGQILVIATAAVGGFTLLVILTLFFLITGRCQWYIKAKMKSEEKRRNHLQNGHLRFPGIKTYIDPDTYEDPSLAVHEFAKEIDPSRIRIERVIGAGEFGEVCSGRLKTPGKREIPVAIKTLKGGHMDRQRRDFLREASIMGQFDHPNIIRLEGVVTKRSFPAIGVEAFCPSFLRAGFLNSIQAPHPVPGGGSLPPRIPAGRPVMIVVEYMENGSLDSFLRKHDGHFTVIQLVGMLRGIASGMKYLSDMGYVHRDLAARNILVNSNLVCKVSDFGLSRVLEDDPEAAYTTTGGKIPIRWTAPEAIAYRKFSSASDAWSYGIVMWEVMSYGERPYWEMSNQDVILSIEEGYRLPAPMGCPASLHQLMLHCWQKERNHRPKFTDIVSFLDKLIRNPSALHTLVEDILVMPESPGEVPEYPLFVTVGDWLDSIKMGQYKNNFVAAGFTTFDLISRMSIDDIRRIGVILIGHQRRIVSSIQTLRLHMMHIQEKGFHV

[37] = target: PAK2 (human) (UniProt Q13177)
[38] = target: RIPK2 (human) (UniProt O43353)
RIPK2 (human), sequence (O43353 whole entry, looked up): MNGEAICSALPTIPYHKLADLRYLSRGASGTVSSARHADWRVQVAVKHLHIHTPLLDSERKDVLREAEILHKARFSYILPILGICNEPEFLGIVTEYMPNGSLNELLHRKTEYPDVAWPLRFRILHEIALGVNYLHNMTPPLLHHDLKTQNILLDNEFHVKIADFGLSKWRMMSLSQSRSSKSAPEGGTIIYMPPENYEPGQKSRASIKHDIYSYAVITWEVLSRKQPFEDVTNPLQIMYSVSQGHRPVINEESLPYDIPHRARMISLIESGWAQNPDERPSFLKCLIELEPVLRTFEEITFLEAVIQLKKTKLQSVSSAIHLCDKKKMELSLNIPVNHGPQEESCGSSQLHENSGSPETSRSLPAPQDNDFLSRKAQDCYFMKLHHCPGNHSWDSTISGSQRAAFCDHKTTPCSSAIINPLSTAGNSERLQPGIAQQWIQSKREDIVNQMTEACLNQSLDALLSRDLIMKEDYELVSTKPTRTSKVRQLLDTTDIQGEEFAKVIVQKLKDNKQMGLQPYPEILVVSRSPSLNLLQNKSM

[39] = target: BLK (human) (UniProt P51451)
[40] = target: TESK1 (human) (UniProt Q15569)
TESK1 (human), sequence (Q15569 whole entry, looked up): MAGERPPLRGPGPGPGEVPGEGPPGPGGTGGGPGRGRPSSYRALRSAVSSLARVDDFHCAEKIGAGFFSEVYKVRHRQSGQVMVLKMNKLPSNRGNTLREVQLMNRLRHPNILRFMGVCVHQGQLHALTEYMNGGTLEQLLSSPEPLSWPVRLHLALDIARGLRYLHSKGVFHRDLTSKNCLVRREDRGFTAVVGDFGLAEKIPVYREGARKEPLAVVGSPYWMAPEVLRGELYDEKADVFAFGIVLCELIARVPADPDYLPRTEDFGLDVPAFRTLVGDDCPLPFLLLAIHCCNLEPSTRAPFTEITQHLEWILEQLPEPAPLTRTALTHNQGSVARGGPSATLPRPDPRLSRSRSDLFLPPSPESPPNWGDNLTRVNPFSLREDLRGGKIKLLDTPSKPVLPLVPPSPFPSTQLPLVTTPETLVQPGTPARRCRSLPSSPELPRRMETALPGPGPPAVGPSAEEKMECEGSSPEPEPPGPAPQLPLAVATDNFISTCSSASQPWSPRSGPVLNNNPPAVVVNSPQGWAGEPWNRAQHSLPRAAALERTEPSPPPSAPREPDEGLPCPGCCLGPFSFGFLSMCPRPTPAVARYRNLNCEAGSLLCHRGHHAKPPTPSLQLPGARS

[41] = target: PRKACA (human) (UniProt P17612)
[42] = target: EPHA5 (human) (UniProt P54756)

NTRK3 (human), sequence (Q16288 whole entry, looked up): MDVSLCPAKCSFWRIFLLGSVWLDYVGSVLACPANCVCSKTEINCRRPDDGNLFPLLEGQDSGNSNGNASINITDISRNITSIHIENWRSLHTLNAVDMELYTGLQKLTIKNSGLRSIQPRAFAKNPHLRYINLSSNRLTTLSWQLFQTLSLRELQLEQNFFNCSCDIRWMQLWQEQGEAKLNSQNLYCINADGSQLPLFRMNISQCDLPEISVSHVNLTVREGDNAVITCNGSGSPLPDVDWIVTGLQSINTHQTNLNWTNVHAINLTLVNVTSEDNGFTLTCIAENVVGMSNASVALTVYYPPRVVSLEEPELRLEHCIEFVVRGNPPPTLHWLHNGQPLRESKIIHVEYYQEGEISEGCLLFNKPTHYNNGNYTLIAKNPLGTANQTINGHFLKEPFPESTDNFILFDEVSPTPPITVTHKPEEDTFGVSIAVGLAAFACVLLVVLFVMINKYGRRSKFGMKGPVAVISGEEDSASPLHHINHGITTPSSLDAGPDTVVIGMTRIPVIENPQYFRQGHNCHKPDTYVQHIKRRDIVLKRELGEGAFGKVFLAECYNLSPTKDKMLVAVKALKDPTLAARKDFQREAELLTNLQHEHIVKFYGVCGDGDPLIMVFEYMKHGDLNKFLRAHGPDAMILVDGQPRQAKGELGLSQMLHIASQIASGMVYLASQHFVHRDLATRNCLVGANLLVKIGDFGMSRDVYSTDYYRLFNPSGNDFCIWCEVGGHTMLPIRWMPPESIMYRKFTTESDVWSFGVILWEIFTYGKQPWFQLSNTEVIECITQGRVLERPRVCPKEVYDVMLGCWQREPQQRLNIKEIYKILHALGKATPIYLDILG
RIOK3 (human), sequence (O14730 whole entry, looked up): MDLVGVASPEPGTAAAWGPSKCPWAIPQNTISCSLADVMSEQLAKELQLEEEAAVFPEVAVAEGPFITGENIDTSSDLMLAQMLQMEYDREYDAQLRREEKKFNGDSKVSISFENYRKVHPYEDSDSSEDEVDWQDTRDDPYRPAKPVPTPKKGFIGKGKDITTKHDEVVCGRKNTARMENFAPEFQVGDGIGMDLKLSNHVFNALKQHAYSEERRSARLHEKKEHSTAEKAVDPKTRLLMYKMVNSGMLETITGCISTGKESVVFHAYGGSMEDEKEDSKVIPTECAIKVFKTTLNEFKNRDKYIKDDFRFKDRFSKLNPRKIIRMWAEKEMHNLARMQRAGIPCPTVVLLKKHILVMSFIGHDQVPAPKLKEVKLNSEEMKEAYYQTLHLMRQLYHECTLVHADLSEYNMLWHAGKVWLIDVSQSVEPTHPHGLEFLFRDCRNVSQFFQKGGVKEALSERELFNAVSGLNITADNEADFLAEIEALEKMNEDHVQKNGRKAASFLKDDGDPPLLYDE

kinase still bound, per cent of control [1]: 100% | kinase still bound, per cent of control [2]: 71% | kinase still bound, per cent of control [3]: 84% | kinase still bound, per cent of control [4]: 79% | kinase still bound, per cent of control [5]: 100% | kinase still bound, per cent of control [6]: 85% | kinase still bound, per cent of control [7]: 100% | kinase still bound, per cent of control [8]: 74% | kinase still bound, per cent of control [9]: 100% | kinase still bound, per cent of control [10]: 88% | kinase still bound, per cent of control [11]: 100% | kinase still bound, per cent of control [12]: 100% | kinase still bound, per cent of control [13]: 100% | kinase still bound, per cent of control [14]: 89% | kinase still bound, per cent of control [15]: 100% | kinase still bound, per cent of control [16]: 100% | kinase still bound, per cent of control [17]: 100% | kinase still bound, per cent of control [18]: 97% | kinase still bound, per cent of control [19]: 100% | kinase still bound, per cent of control [20]: 100% | kinase still bound, per cent of control [21]: 86% | kinase still bound, per cent of control [22]: 100% | kinase still bound, per cent of control [23]: 100% | kinase still bound, per cent of control [24]: 93% | kinase still bound, per cent of control [25]: 83% | kinase still bound, per cent of control [26]: 84% | kinase still bound, per cent of control [27]: 100% | kinase still bound, per cent of control [28]: 98% | kinase still bound, per cent of control [29]: 94% | kinase still bound, per cent of control [30]: 100% | kinase still bound, per cent of control [31]: 100% | kinase still bound, per cent of control [32]: 100% | kinase still bound, per cent of control [33]: 100% | kinase still bound, per cent of control [34]: 100% | kinase still bound, per cent of control [35]: 100% | kinase still bound, per cent of control [36]: 100% | kinase still bound, per cent of control [37]: 100% | kinase still bound, per cent of control [38]: 100% | kinase still bound, per cent of control [39]: 100% | kinase still bound, per cent of control [40]: 91% | kinase still bound, per cent of control [41]: 100% | kinase still bound, per cent of control [42]: 100%
SMILES: CN1CCN(c2ccc(C(=O)Nc3ncc4c(n3)N(C)c3ccccc3C(=O)N4C)cc2)CC1

kinase still bound, per cent of control [1]: 96% | kinase still bound, per cent of control [2]: 82% | kinase still bound, per cent of control [3]: 82% | kinase still bound, per cent of control [4]: 37% | kinase still bound, per cent of control [5]: 85% | kinase still bound, per cent of control [6]: 63% | kinase still bound, per cent of control [7]: 17% | kinase still bound, per cent of control [8]: 66% | kinase still bound, per cent of control [9]: 75% | kinase still bound, per cent of control [10]: 92% | kinase still bound, per cent of control [11]: 98% | kinase still bound, per cent of control [12]: 100% | kinase still bound, per cent of control [13]: 85% | kinase still bound, per cent of control [14]: 100% | kinase still bound, per cent of control [15]: 100% | kinase still bound, per cent of control [16]: 100% | kinase still bound, per cent of control [17]: 95% | kinase still bound, per cent of control [18]: 55% | kinase still bound, per cent of control [19]: 98% | kinase still bound, per cent of control [20]: 88% | kinase still bound, per cent of control [21]: 97% | kinase still bound, per cent of control [22]: 93% | kinase still bound, per cent of control [23]: 100% | kinase still bound, per cent of control [24]: 80% | kinase still bound, per cent of control [25]: 79% | kinase still bound, per cent of control [26]: 98% | kinase still bound, per cent of control [27]: 80% | kinase still bound, per cent of control [28]: 89% | kinase still bound, per cent of control [29]: 80% | kinase still bound, per cent of control [30]: 100% | kinase still bound, per cent of control [31]: 61% | kinase still bound, per cent of control [32]: 100% | kinase still bound, per cent of control [33]: 88% | kinase still bound, per cent of control [34]: 13% | kinase still bound, per cent of control [35]: 27% | kinase still bound, per cent of control [36]: 100% | kinase still bound, per cent of control [37]: 81% | kinase still bound, per cent of control [38]: 66% | kinase still bound, per cent of control [39]: 12% | kinase still bound, per cent of control [40]: 97% | kinase still bound, per cent of control [41]: 100% | kinase still bound, per cent of control [42]: 100%
SMILES: CN1C(=O)c2ccccc2N(C)c2nc(Nc3ccc(N4CCC(O)CC4)cc3)ncc21
